Patent US7223791B2, “Function regulator for retinoid relative receptor” (Takeda Pharmaceutical Company Limited, priority 2001, dated 2007)

Assays:
KKA^y mice = assay: Glucose-lowering and lipid-lowering (triglyceride-lowering) actions in mice; assay type: in vivo; settings: test compound 0.01% in powdery diet for four days, non-administration group taken as 100%; for glucose-lowering action (%): reduction percent of blood glucose level; for lipid-lowering action (%): reduction percent of blood triglyceride level
Text: Glucose-Lowering and Lipid-Lowering (Triglyceride-Lowering) Actions in Mice
Test compounds were mixed in a powdery diet (CE-2, Japan Clea) at the proportion of 0.01%, and freely given to KKA^y mice (9 to 12 weeks old, 5 mice per group), a model of obesity-non-insulin dependent diabetes mellitus (type 2 diabetes mellitus), for four days. During this period, water was given freely. Blood was sampled from orbital venous plexus, and glucose and triglyceride levels in plasma separated from the blood were determined enzymatically using L type Wako Glu2 (Wako Pure Chemical Industries, Ltd.) or L type Wako TG-H (Wako Pure Chemical Industries, Ltd.), respectively. The results are given in [Table 1].
In the Table, “glucose-lowering action (%)” represents a reduction percent (%) of the blood glucose level in a test compound administration group when the blood glucose level in a test compound non-administration group is taken as 100%. In addition, “lipid-lowering action (%)” represents a reduction percent (%) of the blood triglyceride level in the test compound administration group when the blood triglyceride level in the test compound non-administration group is taken as 100%.

PPARγ-RXRα heterodimer = biological target: T1, PPARγ-RXRα heterodimer (Homo sapiens, UniProt P19793+P37231); assay: PPARγ-RXRα heterodimer ligand activity (luciferase reporter, PPARγ:RXRα:4ERPP/CHO-K1 cells); assay type: cell-based; settings: 48 hrs, concentration for 50% of the maximum fold induction
T1 construct: 1.4 kb DNA fragment containing PPARγ gene was recovered from the gel; 1.4 kb DNA fragment containing RXRα gene was recovered from the gel; expressed in transfected cells
T1 sequence (P37231 1-477 isoform P37231-2): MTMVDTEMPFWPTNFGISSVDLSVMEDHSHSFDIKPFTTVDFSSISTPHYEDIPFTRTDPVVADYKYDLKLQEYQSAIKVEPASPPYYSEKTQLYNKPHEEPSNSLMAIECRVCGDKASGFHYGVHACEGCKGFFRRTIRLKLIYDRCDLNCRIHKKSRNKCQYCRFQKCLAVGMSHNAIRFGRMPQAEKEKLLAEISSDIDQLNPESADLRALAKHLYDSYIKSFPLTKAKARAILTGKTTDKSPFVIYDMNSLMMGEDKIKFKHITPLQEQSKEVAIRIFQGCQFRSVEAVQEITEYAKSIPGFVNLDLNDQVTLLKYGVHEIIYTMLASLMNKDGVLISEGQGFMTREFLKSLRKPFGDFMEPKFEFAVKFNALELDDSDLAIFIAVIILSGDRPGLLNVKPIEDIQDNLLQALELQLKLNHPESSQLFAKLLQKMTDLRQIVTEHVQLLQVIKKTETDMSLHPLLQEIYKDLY
T1 sequence (P19793 1-462): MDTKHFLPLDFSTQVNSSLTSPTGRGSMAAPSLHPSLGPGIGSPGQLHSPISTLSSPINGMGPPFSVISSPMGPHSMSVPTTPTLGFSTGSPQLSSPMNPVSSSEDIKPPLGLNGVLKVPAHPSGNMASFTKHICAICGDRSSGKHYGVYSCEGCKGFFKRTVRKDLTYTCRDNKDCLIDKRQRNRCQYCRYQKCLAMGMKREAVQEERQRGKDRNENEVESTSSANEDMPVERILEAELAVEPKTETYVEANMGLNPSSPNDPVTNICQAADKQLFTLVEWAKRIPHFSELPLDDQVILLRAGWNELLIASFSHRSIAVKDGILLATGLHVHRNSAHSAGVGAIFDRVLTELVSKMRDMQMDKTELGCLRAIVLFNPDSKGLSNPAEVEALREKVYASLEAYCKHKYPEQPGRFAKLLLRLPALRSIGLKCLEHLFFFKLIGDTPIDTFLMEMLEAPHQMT
Description: (PPARγ-RXRα Heterodimer Ligand Activity)
PPARγ: RXRα: 4ERPP/CHO-K1 cells obtained in the following Reference Example 5 were cultured in HAM F12 medium (manufactured by NISSUI SEIYAKU) containing 10% fetal bovine serum [manufactured by Life Technologies, Inc., USA], seeded in a 96-well white plate [manufactured by Corning Coster Corporation, USA] at the density of 2×10^4 cells/well and cultured in a CO2 gas incubator at 37° C. overnight.
After washing the 96-well white plate with PBS (Phosphate-buffered saline), 90 μl of HAM F12 medium containing 0.1% fatty acid-free bovine serum albumin (BSA) and 10 μl of test compound were added, and the cells were cultured in a CO2 gas incubator at 37° C. for 48 hrs. The medium was removed and 40 μl of PicaGene 7.5 (manufactured by Wako Pure Chemical Industries, Ltd.) was added. After stirring, the luciferase activity was determined using Lumistar [manufactured by BMG Labtechnologies GmbH, Germany].
The fold induction was calculated from the luciferase activity of each test compound when the luciferase activity of the test compound non-administration group is taken as 1. The values of the test compound concentration and the fold induction were analyzed using PRISM 2.01 (produced by GraphPad Software Inc. USA) to calculate the EC50 values, the concentration of a test compound for 50% of the maximum fold induction. The results are shown in [Table 2].
Introduction of Human PPARγ- and RXRα-Expression Plasmid and Reporter Plasmid into CHO-K1 Cell as Well as Establishment of Expressed Cell
A CHO-K1 cell cultured in a tissue culture flask (750 ml) [produced by Corning Costar Corporation, USA] containing HAM F12 medium (produced by NISSUI SEIYAKU) supplemented with 10% fetal bovine serum [produced by Life Technologies, Inc., USA] was scraped by treating with 0.5 g/L trypsin-0.2 g/L EDTA (ethylenediamine tetraacetate) [produced by Life Technologies, Inc., USA], and then the cell was washed with PBS (Phosphate-buffered saline)[produced by Life Technologies, Inc., USA], centrifuged (1000 rpm, 5 minutes) and suspended in PBS. Subsequently, DNA was introduced into the cell under the conditions shown below using GENE PULSER (produced by Bio-Rad Laboratories, USA).
Namely, to a cuvette having a 0.4 cm gap were added 8×10^6 cells and 10 μg of plasmid pVgRXR2-hPPARγ obtained in Reference Example 3 and 10 μg of reporter plasmid pGL3-4ERPP-TK neo obtained in Reference Example 4, which was subjected to electroporation at the voltage of 0.25 kV under the capacitance of 960 μF. Subsequently, the cell was transferred into a HAM F12 medium containing 10% fetal bovine serum and cultured for 24 hours, and then the cell was scraped again and centrifuged, and then suspended in HAM F12 medium containing 10% fetal bovine serum supplemented with 500 μg/ml of Geneticin [produced by Life Technologies, Inc., USA] and 250 μg/ml of Zeocin (produced by Invitrogen, USA). The obtained suspension was diluted to the density of 10^4 cells/ml and inoculated in a 96-well plate [produced by Corning Costar Corporation, USA], which was cultured in a CO2 gas incubator at 37° C., whereby obtaining a Geneticin- and Zeocin-resistant transformant.
Subsequently, after the transformant cell line thus obtained was cultured in a 24-well plate [produced by Corning Costar Corporation, USA], a cell line in which the luciferase was expressed and induced, i.e., PPARγ: RXRα: 4ERPP/CHO-K1 cell was selected by the addition of 10 μM pioglitazone hydrochloride.

O=C(O)c1ccc(-c2ccc(-c3ccc(C(F)(F)F)cc3)o2)cc1 [Example 10, 4-[5-(4-trifluoromethylphenyl)-2-furyl]benzoic acid]
melting point: 270 to 271 °C | glucose-lowering action (%) (KKA^y mice): 37% | lipid-lowering action (%) (KKA^y mice): 62% | EC50 (PPARγ-RXRα heterodimer): 3.8 nM

O=C(O)c1ccc(-c2ccc(-c3ccc(Cl)cc3)s2)cc1 [Example 15, 4-[5-(4-chlorophenyl)-2-thienyl]benzoic acid]
melting point: 285 to 286 °C | glucose-lowering action (%) (KKA^y mice): 30% | lipid-lowering action (%) (KKA^y mice): 54% | EC50 (PPARγ-RXRα heterodimer): 22 nM

COC(=O)c1ccc(-c2nnc(-c3ccc(C(F)(F)F)cc3)s2)cc1 [Example 58, methyl 4-[5-(4-trifluoromethylphenyl)-1,3,4-thiadiazol-2-yl]benzoate]
melting point: 218 to 219 °C | glucose-lowering action (%) (KKA^y mice): 37% | lipid-lowering action (%) (KKA^y mice): 48%
